How the values were obtained:
[1] = Cytotoxicity test (cell viability, CellTier Glo); format: cell-based; details: human
Protocol: (§1) • Virus: The HIV-1 pseudovirus used in this experiment was a replication deficient virus, which is constructed by WuXi AppTec. • HEK 293T cell line was purchased from ATCC, and Item No. is CRL-11268. Cells were cultured in DMEM medium with 10% fetal bovine serum and 1% double antibody. • Reagents
(§2) On the first day, HEK 293T cells were inoculated into a 96 well test plate at the density of 55000 cells per well and […] per well, and incubated overnight in a 5% CO2 and 37° C. incubator.
(§3) On the second day, the tested compounds (compounds provided in the example of the present invention) and the control compounds were diluted 4-fold with cell culture medium for a total of 8 concentration points, and 50 μL diluted compounds were added to each well, and each well was performed duplicate.
(§4) Cell Control (cells, no compound treatment or virus infection) and virus control (cells infected with virus, no compound treatment) were set up. The final initial test concentration of the tested compounds and control compounds was 1000 nM (Table 1), and the amount of virus infection was 100 TCID50 per well. The total volume of cell culture medium was 200 μL per well, and the final concentration of DMSO in the culture medium was 0.5%.
(§5) The cells were cultured in a 5% CO2 and 37° C. incubator for additional 3 days.
On the fifth day, in the cytotoxicity test plates, 100 μL cell supernatant were sucked from each well, 100 μL cell viability assay reagent CellTier Gloin was added in dark. Cell viability in each well was detected by BioTek enzyme-linked immunosorbent assay reader, and the data was used for sample cytotoxicity analysis.
(§6) Dose-response curve was drawn through GraphPad Prism software. The calculation equations for antiviral activity (% Inhibition) and cell viability (% cell viability) were as follow:
(§7) The values of EC50 and CC50 were analyzed by GraphPad Prism (version 5) software, and nonlinear fitting analysis was used for inhibitory activity and cell viability of the compounds, and the fitting method was “log (inhibitor) vs. response—Variable slope”.
(§8) 3. The HIV-1 pseudovirus experiment was applied to determinate the in vitro antiviral activity and cytotoxicity of the tested compound on HEK 293T cells, and the experimental results were shown in the table below.

HIV-1 pseudovirus = HIV-1 pseudovirus infection test (antiviral activity, luciferase); format: cell-based; details: Human immunodeficiency virus 1, HEK-293T, 72 h
Protocol: as §1, §2, §3
Subsequently, the HIV-1 pseudovirus was diluted to 100 TCID50/50 μL with cell culture medium, and 50 μL diluted virus was added to each well.
as §4, §5
On the fifth day, in the antiviral activity test plates, 100 μL cell supernatant was sucked away from each well, 100 μL 2X luciferase reporter gene assay reagent Britellite plus was added in dark. The luciferase activity in each well of the test plates was detected by Envision. The data was used for sample antiviral activity analysis.
as §6, §7, §8

[2] = PK test of compounds (mouse); format: in vivo, ICR mice
Protocol: The mice were not fed until 5 pm on the day before administration, and fasted overnight with water. The mice in Group IV were administered with 2 mg/kg, while those in Group PO were administered with 10 mg/kg. Feeding was resumed 2 hours after administration. For mice administered by gavage, 20 μL blood was collected from the saphenous vein in calf before administration and 0.25, 0.5, 1, 2, 4, 8, and 24 hours after administration, respectively, and placed in EDTA-K2 anticoagulant blood collection tubes, and then the blood would be placed on ice until centrifuged to obtain plasma samples. The plasma samples were centrifuged at 4° C. (3500 rpm, 10 min), and after separation, the samples were transferred to EP tubes and stored at −80° C. for detection. For mice admistrated by intravenous injection, 20 μL blood was collected from the saphenous vein in calf before administration and 0.0833, 0.25, 0.5, 1, 2, 4, 8 and 24 hours after administration, respectively, and placed in EDTA-K2 anticoagulant blood collection tubes, and then the blood would be placed on ice until centrifuged to obtain a plasma sample. The plasma samples were centrifuged at 4° C. (3500 rpm, 10 min), and after separation, the samples were transferred to EP tubes and stored at −80° C. for detection. The level of tested compounds in blood plasma of mice, who had orally administrated with different concentrations of drugs were determinated: 10 μL mouse blood at each time point after administration was taken, 100 μL methanol containing an internal standard (100 ng/mL) was added, vortex mixed for 1 minute, centrifuged at 4° C. (12000 rmp, 5 minutes), and 1 μL supernatant was taken from the plasma samples for LC-MS/MS analysis.

C[C@H]1N2C(=O)c3c(O)c(=O)c(C(=O)NCc4ccc(F)cc4F)cn3C[C@@H]2OCC12CC2 [Compound 1]
CC50 at 3 days [1]: > 1000 nM
EC50 (HIV-1 pseudovirus): 1.08 nM
bioavailability (in words) ([2]; PK test in mice): good bioavailability
half-life ([2]; male, mouse, plasma, ICR mice, PO 10 mg/kg): 4.37 ± 0.47 h
bioavailability ([2]; male, mouse, plasma, ICR mice, PO 10 mg/kg (IV 2 mg/kg)): 57%

Reference: US20250376481A1, “POLYCYCLIC CARBAMOYL PYRIDONE DERIVATIVE, PREPARATION METHOD THEREFOR AND PHARMACEUTICAL COMPOSITION THEREOF” (NANJING AIDEA PHARMACEUTICAL TECHNOLOGY CO., LTD., priority 2021, published 2025)
